pKi: −log10 of the molar value. Calls of active or inactive are those of the source. The rule behind the calls is not given here.
How the values were obtained:
Rattus norvegicus [1] = assay: The compound was tested per os dose of 25 mg/kg for 0.25 hours for maximal electroshock test on rats; MES= 2/4; format: functional
[2] = The compound was tested for neurologic toxicity (rotarod) test for 4 hours in mice; active at 30 mg/kg; format: organism-based; set-up: dose 30 mg/kg; details: mouse, in vivo
[3] = The compound was tested for neurologic toxicity (rotarod) test for 30 min in mice; active at 30 mg/kg; format: organism-based; set-up: dose 30 mg/kg; details: mouse, in vivo, 0.5 h
Rattus norvegicus [4] = assay: The compound was tested per os dose of 25 mg/kg for 2 hours for rotarod toxicity; 0/4; format: functional
Rattus norvegicus [5] = assay: The compound was tested per os dose of 25 mg/kg for 1 hour for maximal electroshock test on rats; MES= 4/4; format: functional
Rattus norvegicus [6] = assay: The compound was tested per os dose of 25 mg/kg for 4 hours for rotarod toxicity; 0/4; format: functional
Mus musculus [7] = assay: The compound was tested for anticonvulsant activity in Maximal electroshock seizure test (MES) for 4 hr in mice(ip); active at 100 mg/kg; format: functional, organism-based; set-up: dose 100 mg/kg
[8] = Protective index value is the ratio between ED50 and TD50; format: functional
[9] = The compound was tested for time of peak effect (TPE) in hours for its toxicity in mice on ip administration.; format: organism-based; details: mouse, in vivo
Mus musculus [10] = assay: The compound was tested to inhibit 50% of induced maximal electroshock seizure in mice on ip administration.; format: functional
[11] = (§1) The compound was determined for the dose (mg/kg) by rotarod test at the time of peak neurotoxic effect in mice on ip administration.; format: ADME, organism-based; details: mouse, in vivo
Rattus norvegicus [12] = assay: The compound was tested per os dose of 25 mg/kg for 2 hours for maximal electroshock test on rats; MES= 3/4; format: functional
Rattus norvegicus [13] = assay: The compound was tested per os dose of 25 mg/kg for 0.5 hours for rotarod toxicity; 0/4; format: functional
[14] = The compound was tested for the toxic dose on oral administration. (Value in parenthesis indicate 95% confidence limits).; format: ADME; details: rat
Rattus norvegicus [15] = assay: The compound was tested per os dose of 25 mg/kg for 0.25 hours for rotarod toxicity; 0/4; format: functional
Mus musculus [16] = assay: The compound was tested for anticonvulsant activity in subcutaneous pentylenetetrazole seizure test (sc Met) for 30 min in mice; active at 100 mg/kg; format: functional, organism-based; set-up: dose 100 mg/kg
Mus musculus [17] = assay: The compound was tested for anticonvulsant activity in subcutaneous pentylenetetrazole seizure test (sc Met) for 4 hr in mice; active at 300 mg/kg; format: functional, organism-based; set-up: dose 300 mg/kg
Rattus norvegicus [18] = assay: The compound was tested per os dose of 25 mg/kg for 1 hour for rotarod toxicity; 0/4; format: functional
Rattus norvegicus [19] = assay: The compound was tested per os dose of 25 mg/kg for 4 hours for maximal electroshock test on rats; MES= 2/4; format: functional
Rattus norvegicus [20] = assay: The compound was tested per os dose of 25 mg/kg for 0.5 hours for maximal electroshock test on rats; MES= 2/4; format: functional
Mus musculus [21] = assay: Time of peak effect in mice following i.p. administration.; format: functional
Mus musculus [22] = assay: The compound was tested for anticonvulsant activity in Maximal electroshock seizure test for 30 min in mice(ip); active at 30 mg/kg; format: functional, organism-based; set-up: dose 30 mg/kg
Mus musculus [23] = assay: Inhibition of s.c. pentylenetetrazole induced seizure in mice following i.p. administration.; format: functional
Rattus norvegicus [24] = assay: The compound was tested for the effective oral dose to inhibit 50% of the anticonvulsant in rats.(Value in parenthesis indicate 95% confidence limits).; format: functional
Mus musculus [25] = assay: The compound was tested for anticonvulsant activity in Maximal electroshock seizure test for 4 hr in mice(ip); active at 300 mg/kg; format: functional, organism-based; set-up: dose 300 mg/kg
Mus musculus [26] = assay: The compound was tested for anticonvulsant activity in subcutaneous pentylenetetrazole seizure test (sc Met) for 4 hr in mice; activity at 300 mg/kg; format: functional, organism-based; set-up: dose 300 mg/kg
Mus musculus [27] = assay: Anticonvulsant activity in Maximal electroshock seizure test at 100 mg/kg i.p. in mice.; format: functional, organism-based; set-up: dose 100 mg/kg
[28] = The compound was tested for neurologic toxicity (rotarod) test for 4 hr in mice; no activity or toxicity at 300 mg/kg; format: organism-based; set-up: dose 300 mg/kg; details: mouse, in vivo
Mus musculus [29] = assay: The compound was tested for anticonvulsant activity in subcutaneous pentylenetetrazole seizure test (sc Met) for 30 min in mice; activity at 300 mg/kg; format: functional, organism-based; set-up: dose 300 mg/kg
[30] = The compound was tested for neurologic toxicity (rotarod) test for 30 min in mice; activity at 100 mg/kg; format: organism-based; set-up: dose 100 mg/kg; details: mouse, in vivo, 0.5 h
Sigma 2 receptor = assay: Affinity on sigma 2 receptor using [3H]- DTG as radioligand
Mus musculus [31] = assay: as §1; format: functional
Mus musculus [32] = assay: The compound was tested for anticonvulsant activity in Maximal electroshock seizure test (MES) for 4 hr in mice(ip); active at 300 mg/kg; format: functional, organism-based; set-up: dose 300 mg/kg
[33] = The compound was tested for neurologic toxicity (rotarod) test for 4 hours in mice; active at 100 mg/kg; format: organism-based; set-up: dose 100 mg/kg; details: mouse, in vivo
[34] = The compound was tested for neurologic toxicity (rotarod) test for 30 min in mice; active at 300 mg/kg; format: organism-based; set-up: dose 300 mg/kg; details: mouse, in vivo, 0.5 h
Mus musculus [35] = assay: The anticonvulsant activity in subcutaneous pentylenetetrazole seizure test (sc Met) for 4 hr in mice; no activity or no toxicity at 300 mg/kg; format: functional, organism-based; set-up: dose 300 mg/kg
Mus musculus [36] = assay: Anticonvulsant activity in subcutaneous pentylenetetrazole seizure test for 30 min in mice; No activity/toxicity at 300 mg/kg.; format: functional, organism-based; set-up: dose 300 mg/kg
[37] = biological target: Sigma non-opioid intracellular receptor 1 (Homo sapiens) (UniProt Q99720); assay: Ratio between the Ki(nM)values of sigma-2 and sigma-1; format: functional
Chain of Sigma non-opioid intracellular receptor 1 (Homo sapiens) (Q99720 whole entry): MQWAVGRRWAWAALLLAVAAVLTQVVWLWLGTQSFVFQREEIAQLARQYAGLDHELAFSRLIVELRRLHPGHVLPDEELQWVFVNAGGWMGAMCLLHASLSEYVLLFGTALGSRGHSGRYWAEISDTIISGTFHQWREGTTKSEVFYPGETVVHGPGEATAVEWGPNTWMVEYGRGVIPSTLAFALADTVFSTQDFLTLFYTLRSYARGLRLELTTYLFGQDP

With Cn1c(=O)sc2ccccc21 the Protected/Tested (Rattus norvegicus [1]) was 2, the Rotarod toxicity [2] was “active at 30 mg/kg” and the Rotarod toxicity [3] was “active at 30 mg/kg”. The “No. of animals exhibiting toxicity / Number of animals tested” value (Rattus norvegicus [4]) was 0, the Protected/Tested (Rattus norvegicus [5]) was 4 and the “No. of animals exhibiting toxicity / Number of animals tested” value (Rattus norvegicus [6]) was 0. For the same compound, the MES (Mus musculus [7]) was “active at 100 mg/kg”, the PI [8] was 8.6 and the Toxicity [9] was 0.25 h. It also gave an ED50 (Mus musculus [10]) of 24.2 mg/kg, a TD50 [11] of 55.2 mg/kg and a Protected/Tested (Rattus norvegicus [12]) of 3. The “No. of animals exhibiting toxicity / Number of animals tested” value (Rattus norvegicus [13]) was 0, the TD50 [14] was 140 mg/kg and the “No. of animals exhibiting toxicity / Number of animals tested” value (Rattus norvegicus [15]) was 0. For the same compound, the scMet (Mus musculus [16]) was “active at 100 mg/kg”, the scMet (Mus musculus [17]) was “active at 100 mg/kg” and the “No. of animals exhibiting toxicity / Number of animals tested” value (Rattus norvegicus [18]) was 0. For the same compound, the Protected/Tested (Rattus norvegicus [19]) was 2, the Protected/Tested (Rattus norvegicus [20]) was 2 and the Activity (Mus musculus [21]) was 0.25 h. For the same compound, the MES (Mus musculus [22]) was “active at 100 mg/kg”, the ED50 (Mus musculus [23]) was greater than 100 mg/kg and the ED50 (Rattus norvegicus [24]) was 16.2 mg/kg.
In the case of CCCCC(=O)c1ccc2c(c1)sc(=O)n2C(C)=O, the MES (Mus musculus [25]) was “active at 300 mg/kg”, the scMet (Mus musculus [26]) was “activity at 300 mg/kg” and the MES (Mus musculus [27]) was “active at 300 mg/kg”. For the same compound, the Rotarod toxicity [28] was “activity at 100 mg/kg”, the scMet (Mus musculus [29]) was “activity at 300 mg/kg” and the Rotarod toxicity [30] was “activity at 100 mg/kg”.
In the case of O=C(c1ccccc1)c1ccc2c(c1)sc(=O)n2CCN1CCCC1, the pKi (Sigma 2 receptor) was 6.65, the TD50 (Mus musculus [31]) was 170 mg/kg and the MES (Mus musculus [27]) was “active at 300 mg/kg”. The MES (Mus musculus [32]) was “active at 300 mg/kg”, the Rotarod toxicity [33] was “active at 100 mg/kg” and the Rotarod toxicity [34] was “active at 100 mg/kg”. The scMet (Mus musculus [35]) was “No activity or no toxicity at 300 mg/kg”, the Toxicity [9] was 0.25 h and the ED50 (Mus musculus [10]) was 42.5 mg/kg. The scMet (Mus musculus [36]) was “No activity or no toxicity at 300 mg/kg”, the Ratio [37] was 4 and the Activity (Mus musculus [21]) was 0.25 h. It also gave an ED50 (Mus musculus [23]) greater than 210 mg/kg.

— ChEMBL document CHEMBL1131315, “Synthesis and anticonvulsant activity of 2(3H)-benzoxazolone and 2(3H)-benzothiazolone derivatives” (J Med Chem, 1998)
